Patent US20150322083A1, “(THIENO[2,3-b][1,5]BENZOXAZEPIN-4-YL)PIPERAZIN-1-YL COMPOUNDS AS SELECTIVE 5-HT2A INVERSE AGONISTS” (Eli Lilly and Company, priority 2014, published 2015)
pEC50, pKi: −log10 of the molar value.

Assays:
5-HT2B = 5-HT2B (Homo sapiens, UniProt P41595); experiment: 5-HT2B binding (selectivity data)
Experimental: (§1) Curves are evaluated using a 4-parameter logistic nonlinear equation to obtain the concentration of competitor causing 50% inhibition of radioligand binding (IC50). Equilibrium dissociation constants (Ki) are calculated according to the equation Ki=IC50/(1+L/Kd), where L equals the concentration of radioligand used in the experiment and Kd equals the equilibrium dissociation constant of the radioligand for the receptor, determined from standard saturation analysis or homologous competition experiments. Reported values for Ki, where n values are indicated, are shown as geometric mean±the standard error of the mean (SEM), with the number of replicate determinations indicated by n. Geometric means are calculated by the equation GeoMean=10̂(Average(log Ki 1+log Ki 2+ . . . log Ki n)/[…]).
(§2) Further, the compounds of the invention may be tested in binding assays and functional activity assays by well known methods for other physiologically important receptors such as, but not limited to, the hERG channel, other serotonin receptors (specifically 5-HT1B receptors, lack of agonist activity at 5-HT2B receptors, 5-HT2C, 5-HT5, 5-HT6, and 5-HT7 receptors), dopaminergic receptors (specifically D1, D2, and D3), H1 receptors, GABAA receptors, adrenergic receptors and monoamine transporters.

hERG channel = hERG channel (Homo sapiens, UniProt Q12809); experiment: hERG channel assay (selectivity data)
hERG channel, sequence (Q12809 whole entry): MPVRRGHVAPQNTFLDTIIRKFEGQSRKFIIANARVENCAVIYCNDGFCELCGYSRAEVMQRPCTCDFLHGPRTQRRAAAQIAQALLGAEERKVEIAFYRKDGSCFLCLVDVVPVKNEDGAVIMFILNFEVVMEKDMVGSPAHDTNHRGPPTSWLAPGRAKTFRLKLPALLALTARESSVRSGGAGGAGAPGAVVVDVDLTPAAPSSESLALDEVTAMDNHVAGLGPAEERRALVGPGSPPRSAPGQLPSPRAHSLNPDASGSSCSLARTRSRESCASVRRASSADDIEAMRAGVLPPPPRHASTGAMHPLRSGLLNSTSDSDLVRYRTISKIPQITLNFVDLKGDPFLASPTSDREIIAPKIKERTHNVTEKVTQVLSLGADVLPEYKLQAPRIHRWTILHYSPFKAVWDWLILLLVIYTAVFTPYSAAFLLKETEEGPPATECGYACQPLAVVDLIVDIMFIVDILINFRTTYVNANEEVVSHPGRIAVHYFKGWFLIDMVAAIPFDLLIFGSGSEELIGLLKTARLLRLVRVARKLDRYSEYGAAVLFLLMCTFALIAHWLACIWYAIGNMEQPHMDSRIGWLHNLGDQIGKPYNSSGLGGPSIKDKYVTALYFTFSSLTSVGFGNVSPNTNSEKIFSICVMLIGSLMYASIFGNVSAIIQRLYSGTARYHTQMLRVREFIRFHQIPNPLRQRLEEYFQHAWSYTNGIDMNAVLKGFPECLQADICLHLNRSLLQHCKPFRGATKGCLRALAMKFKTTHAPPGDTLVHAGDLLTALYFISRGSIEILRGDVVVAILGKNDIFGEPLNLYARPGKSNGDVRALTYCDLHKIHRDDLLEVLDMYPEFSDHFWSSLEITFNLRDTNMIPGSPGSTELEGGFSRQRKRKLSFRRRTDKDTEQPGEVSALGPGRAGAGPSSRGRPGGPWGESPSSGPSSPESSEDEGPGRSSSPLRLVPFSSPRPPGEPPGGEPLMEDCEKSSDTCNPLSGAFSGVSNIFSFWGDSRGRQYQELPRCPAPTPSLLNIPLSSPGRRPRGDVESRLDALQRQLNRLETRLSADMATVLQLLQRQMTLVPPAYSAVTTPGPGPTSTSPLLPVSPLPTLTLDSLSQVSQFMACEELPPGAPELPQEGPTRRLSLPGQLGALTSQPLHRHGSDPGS
Description: as §2

H1 receptors = H1 receptors (Homo sapiens, UniProt P35367); experiment: H1 receptor binding
H1 receptors, sequence (P35367 whole entry): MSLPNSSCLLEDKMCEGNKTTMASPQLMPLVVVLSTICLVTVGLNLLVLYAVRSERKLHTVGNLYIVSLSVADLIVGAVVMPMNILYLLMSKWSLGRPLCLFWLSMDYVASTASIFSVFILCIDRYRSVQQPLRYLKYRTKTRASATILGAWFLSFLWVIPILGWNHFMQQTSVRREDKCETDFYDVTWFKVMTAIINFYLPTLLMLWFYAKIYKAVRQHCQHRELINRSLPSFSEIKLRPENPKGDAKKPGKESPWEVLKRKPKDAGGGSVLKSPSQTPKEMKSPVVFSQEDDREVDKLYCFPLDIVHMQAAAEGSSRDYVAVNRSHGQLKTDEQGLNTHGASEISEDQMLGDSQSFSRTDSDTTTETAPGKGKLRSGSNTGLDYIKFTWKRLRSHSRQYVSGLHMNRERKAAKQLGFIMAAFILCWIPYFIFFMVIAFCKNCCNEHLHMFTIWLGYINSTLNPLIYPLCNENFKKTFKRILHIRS
Experimental: as §1, §2

5-HT1B receptors = 5-HT1B receptors (Homo sapiens, UniProt P28222); experiment: 5-HT1B binding
5-HT1B receptors, sequence (P28222 whole entry): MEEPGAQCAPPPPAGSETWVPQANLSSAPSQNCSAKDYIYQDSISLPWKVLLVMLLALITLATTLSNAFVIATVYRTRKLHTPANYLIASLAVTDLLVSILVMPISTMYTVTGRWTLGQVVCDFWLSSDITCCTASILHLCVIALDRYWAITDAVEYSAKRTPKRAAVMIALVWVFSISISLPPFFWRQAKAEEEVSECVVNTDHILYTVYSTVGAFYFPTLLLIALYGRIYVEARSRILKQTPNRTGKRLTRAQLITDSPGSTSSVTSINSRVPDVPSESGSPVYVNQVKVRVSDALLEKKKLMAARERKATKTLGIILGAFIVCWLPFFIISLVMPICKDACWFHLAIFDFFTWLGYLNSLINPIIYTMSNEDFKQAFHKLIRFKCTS
Experimental: as §1, §2

5-HT5 = 5-HT5 (Homo sapiens, UniProt P47898); experiment: 5-HT5 binding
5-HT5, sequence (P47898 whole entry, species assumed): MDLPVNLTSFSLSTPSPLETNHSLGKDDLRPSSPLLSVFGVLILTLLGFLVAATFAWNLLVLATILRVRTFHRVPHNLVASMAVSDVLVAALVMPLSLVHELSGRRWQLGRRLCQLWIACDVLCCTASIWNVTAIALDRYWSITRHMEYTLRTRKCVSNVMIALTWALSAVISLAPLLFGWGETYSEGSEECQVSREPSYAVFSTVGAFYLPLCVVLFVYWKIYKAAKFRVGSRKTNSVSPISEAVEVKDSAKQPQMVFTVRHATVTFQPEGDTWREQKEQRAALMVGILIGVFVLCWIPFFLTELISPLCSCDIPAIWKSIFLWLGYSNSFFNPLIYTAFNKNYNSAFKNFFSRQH
Experimental: as §1, §2

Adrenergic alpha1B = Adrenergic alpha1B (Homo sapiens, UniProt P35368); experiment: Adrenergic alpha1B binding
Adrenergic alpha1B, sequence (P35368 whole entry): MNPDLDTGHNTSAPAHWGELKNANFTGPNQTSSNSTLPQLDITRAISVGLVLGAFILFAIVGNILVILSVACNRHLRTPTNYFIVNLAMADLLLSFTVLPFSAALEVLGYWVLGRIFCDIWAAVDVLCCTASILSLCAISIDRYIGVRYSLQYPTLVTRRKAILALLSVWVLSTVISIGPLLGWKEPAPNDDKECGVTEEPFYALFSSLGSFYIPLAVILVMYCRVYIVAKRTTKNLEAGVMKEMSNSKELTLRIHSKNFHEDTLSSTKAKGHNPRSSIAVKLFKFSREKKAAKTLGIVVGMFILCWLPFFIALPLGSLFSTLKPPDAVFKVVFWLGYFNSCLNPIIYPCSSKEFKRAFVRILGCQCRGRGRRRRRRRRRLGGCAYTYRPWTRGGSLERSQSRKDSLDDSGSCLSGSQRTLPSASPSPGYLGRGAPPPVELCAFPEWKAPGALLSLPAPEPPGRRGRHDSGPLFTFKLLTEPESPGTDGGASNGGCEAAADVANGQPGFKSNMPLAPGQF
Experimental: as §1, §2

Serotonin Transporter = Serotonin Transporter (Homo sapiens, UniProt P31645); experiment: Serotonin transporter binding
Serotonin Transporter, sequence (P31645 whole entry): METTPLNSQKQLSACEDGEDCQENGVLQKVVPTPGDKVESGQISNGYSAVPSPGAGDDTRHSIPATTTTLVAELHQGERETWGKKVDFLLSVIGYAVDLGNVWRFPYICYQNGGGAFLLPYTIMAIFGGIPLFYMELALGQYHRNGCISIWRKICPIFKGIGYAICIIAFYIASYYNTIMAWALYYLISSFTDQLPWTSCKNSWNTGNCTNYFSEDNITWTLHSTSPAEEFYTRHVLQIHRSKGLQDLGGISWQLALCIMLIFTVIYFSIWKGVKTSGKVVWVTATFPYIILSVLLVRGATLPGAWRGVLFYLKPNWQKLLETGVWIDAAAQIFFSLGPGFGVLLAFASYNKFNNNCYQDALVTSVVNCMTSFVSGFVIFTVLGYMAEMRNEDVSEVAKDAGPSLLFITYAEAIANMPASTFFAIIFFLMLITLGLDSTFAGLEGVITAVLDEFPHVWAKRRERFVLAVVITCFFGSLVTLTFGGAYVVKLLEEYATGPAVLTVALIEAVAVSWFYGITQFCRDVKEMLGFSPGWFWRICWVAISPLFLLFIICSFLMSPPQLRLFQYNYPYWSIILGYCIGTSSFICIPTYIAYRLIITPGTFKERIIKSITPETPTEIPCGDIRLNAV
Experimental: as §1, §2

[1] = biological target: T1, recombinant rat 5-HT2A receptor (Rattus norvegicus, UniProt P14842); experiment: 5-HT2A inverse agonism, [35S]GTPγS binding to AV12 membranes (rat receptor); type: biochemical; conditions: n=2, read-out: EC50, inhibition of intrinsic activity of the 5-HT2A receptor
T1 construct: expressed in transfected cells; host or cells: AV12 cells, membranes
T1 sequence (P14842 whole entry): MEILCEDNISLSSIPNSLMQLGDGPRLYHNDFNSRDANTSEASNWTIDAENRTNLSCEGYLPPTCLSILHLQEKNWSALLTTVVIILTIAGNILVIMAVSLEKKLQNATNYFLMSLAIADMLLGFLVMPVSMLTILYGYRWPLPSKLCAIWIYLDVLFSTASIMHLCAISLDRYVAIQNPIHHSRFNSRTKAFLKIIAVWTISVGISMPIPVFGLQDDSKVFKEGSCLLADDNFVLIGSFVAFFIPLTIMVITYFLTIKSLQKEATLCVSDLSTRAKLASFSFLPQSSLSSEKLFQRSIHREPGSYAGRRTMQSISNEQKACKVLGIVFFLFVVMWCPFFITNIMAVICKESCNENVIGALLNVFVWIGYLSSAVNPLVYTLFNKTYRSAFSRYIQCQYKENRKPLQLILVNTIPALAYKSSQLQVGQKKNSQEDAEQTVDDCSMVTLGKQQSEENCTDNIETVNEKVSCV
Experimental: The inverse agonist activity of compounds of the present invention may be determined by literature recognized assay methods measuring [^35S]GTPγS binding to membranes transfected with 5-HT2A receptors in an in vitro activity assay essentially as described below.
Membranes are prepared from frozen pellets of whole AV12 cells expressing the human or rat 5-HT2A receptor. Cells are thawed on ice and homogenized in homogenization buffer (50 mM Tris-HCl, 0.5 mM EDTA, 1 tablet/100 mL of complete EDTA free protease inhibitor tablets (Roche Cat. No. 05 056 489 001), pH=7.4) with 20 strokes of a teflon-glass homogenizer attached to a motorized overhead stirrer. Centrifuge membranes at 1000 rpm (aprox. 150×g) for 15 min. at 4° C. […] The final supernatant is discarded and the pellet is resuspended in homogenization buffer and its protein content is determined by the method of Bradford using BSA as the standard. […]
Test compound is prepared from a 10 mM DMSO stock solution by serial dilution to provide a 10 point concentration response curve, with a final 1% DMSO concentration when added to the assay mixture. […] This mixture is incubated for 3 hr. with constant shaking at room temperature, centrifuged at 300 rpm for 1 min. with no brake and incubated for 3 more hr. before reading in a microplate scintillation counter.

5-HT2B, sequence (P41595 whole entry, species assumed): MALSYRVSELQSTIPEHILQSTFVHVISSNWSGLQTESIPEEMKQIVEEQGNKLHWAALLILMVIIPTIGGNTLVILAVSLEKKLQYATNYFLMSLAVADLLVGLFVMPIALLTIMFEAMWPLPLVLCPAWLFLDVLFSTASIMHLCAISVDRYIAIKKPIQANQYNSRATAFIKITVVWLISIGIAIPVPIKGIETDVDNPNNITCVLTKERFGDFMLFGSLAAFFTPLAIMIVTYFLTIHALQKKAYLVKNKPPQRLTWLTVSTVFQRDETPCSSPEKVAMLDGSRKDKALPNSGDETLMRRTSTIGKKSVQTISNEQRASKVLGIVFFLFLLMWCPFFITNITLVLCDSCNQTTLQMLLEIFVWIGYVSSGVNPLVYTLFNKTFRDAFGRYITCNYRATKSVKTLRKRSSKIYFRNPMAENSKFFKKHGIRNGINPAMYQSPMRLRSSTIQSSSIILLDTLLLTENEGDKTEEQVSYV

Q: What does the source list for `Cc1ccc2c(c1)Oc1sc(SC(C)C)cc1C(N1CCN(CC(C)(C)C(=O)O)CC1)=N2` [Example 1, 3-[4-(2-isopropylsulfanyl-8-methyl-thieno[2,3-b][1,5]benzoxazepin-4-yl)piperazin-1-yl]-2,2-dimethyl-propanoic acid]?
A: pKi (5-HT2B): 6.12; hERG Channel (hERG channel): >100 µM; pKi (H1 receptors): 6.22; pKi (5-HT1B receptors): < 5.02; pKi (5-HT5): 5.17; pKi (Adrenergic alpha1B): < 4.80; pKi (Serotonin Transporter): < 6.28; pEC50 [1]: 6.99
